US7538241B2, “Hsp90 family protein inhibitors” (Kyowa Hakko Kogyo Co., Ltd., priority 2003, dated 2009)

Tests used:
[1] = tested on: human multiple myeloma-derived KMS-11 cells; test: Cell growth inhibition test with KMS-11 cells (WST-1); assay type: cell-based; settings: 72 hours, read-out: 50% growth inhibition concentration (GI50)
Experimental: In a 96-well plate (Nunc), human multiple myeloma-derived KMS-11 cells were sown in an amount of 4000 cells/well, and pre-incubated in 10% FCS-containing RPMI 1640 (Nissui) (incubation medium) in a 5% carbon dioxide incubator at 37° C. for 24 hours. Next, a DMSO solution of a test compound controlled at 10 mmol/L was stepwise diluted with the incubation medium, and added to each well in a total amount of 100 μL/well, and further incubated in the 5% carbon dioxide incubator at 37° C. for 72 hours. After the incubation, WST-1-labeled mixture (Rosh Diagnostic) diluted 2-fold with the incubation medium was added thereto in an amount of 20 μL/well, and incubated in the 5% carbon dioxide incubator at 37° C. for 2 hours. Using a microplate spectrophotometer (Biorad's Model 550), the absorbance at 450 nm and 655 nm of each well was measured. The cell growth inhibition activity of the test compound was indicated by the 50% growth inhibition concentration (GI50) thereof, like in Test Example 2.

[2] = tested on: human mammary cancer-derived KPL-4 cells; test: Cell growth inhibition test with KPL-4 cells (WST-1); assay type: cell-based; settings: KPL4, 72 hours, read-out: 50% growth inhibition concentration (GI50)
How it was run: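 KPL-4 cells pre-incubated 24 h in 10% FCS DMEM, then exposed to serially diluted compound for 72 h at 37 °C, 5% CO2. WST-1 added for 1 h; A450 minus A655 read. GI50 relative to untreated cells.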

[3] = tested on: human chronic myelocytic leukemia-derived K562 cells; test: Cell growth inhibition test with K562 cells (WST-1); assay type: cell-based; settings: 72 hours, read-out: 50% growth inhibition concentration (GI50)
How it was run: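 K562 cells at 1500 cells/well in 10% FCS RPMI 1640, pre-incubated 5 h, then exposed to serially diluted compound for 72 h at 37° C, 5% CO2. Viability read by WST-1 after 2 h (absorbance 450/655 nm); GI50 reported.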

[4] = tested on: FGFR3 (fibroblast growth factor receptor 3); test: Deletion of protein encoded by immunoglobulin gene-translocated partner gene in KMS-11 cells (Western blotting); assay type: cell-based, human; settings: 10 μmol/L and 1.0 μmol/L, 24 hours, FIG. 1
Experimental: (§1) Human multiple myeloma-derived KMS-11 cells [In Vitro Cell. Dev. Biol., 25, 723 (1989)], which had been diluted with a 10% fetal calf serum-containing RPMI 1640 (incubation medium) to 100,000 cellImL, were put in a 6-well plastic plate for cell incubation (Nunc), in an amount of 3 mL/well. It is reported that the KMS-11 cells express a large quantity of FGFR3 (fibroblast growth factor receptor 3) as a result of translocation between the immunoglobulin gene in 14q32 and the FGFR3 gene in 4p16.3 [Blood 90, 4062 (1997)]. […]
(§2) To the thus-collected cells, added was a cooled cytolysis buffer (50 mmol/L HEPES NaOH, pH 7.4, 250 mmol/L sodium chloride, 1 mmol/L ethylenediamine-tetraacetic acid, 1% Nonidet P-40, 1 mmol/L dithiothreitol, 1 mmol/L phenylmethylsulfonyl fluoride, 5 μg/mL leupeptin), and kept at 4° C. for 30 minutes for cytolysis. […] The protein concentration in the resulting supernatant was measured, and samples were prepared so as to have the same protein amount for each lane, and these were subjected to SDS (sodium dodecylsulfate)-polyacrylamide gel electrophoresis for protein separation.
(§3) Thus separated, the protein sample was transferred onto a polyvinylidene difluoride membrane (Millipore). […] After further reaction with an ECL reagent (Amersham Biosciences), the protein bands were detected on an X-ray film. […]

Erk2 = test: Western blotting of non-Hsp90 client protein in KMS-11 cells; assay type: cell-based, human; settings: 10 μmol/L and 1.0 μmol/L, 24 hours, FIG. 1
Experimental: as §1, §2, §3

Compound | GI50 [1] | GI50 [2] | GI50 [3] | deletion of FGFR3 encoded by the immunoglobulin gene-translocated partner gene [4] | protein amount of Erk2 (non-Hsp90 client protein) (Erk2)
CCc1c(O)cc(O)c(-c2cccc(O)c2)c1CCOCCO [Compound 174, 6-Ethyl-5-[2-(2-hydroxyethoxy)ethyl]-4-(3-hydroxyphenyl)benzene-1,3-diol] | ≤ 50 µM | ≤ 50 µM | ≤ 50 µM |  | 
CCc1c(O)cc(O)c(-c2ccccc2)c1CCc1ocnc1C(=O)O [Compound 209, 5-[2-(2-Ethyl-3,5-dihydroxy-6-phenylphenyl)ethyl]-1,3-oxazole-4-carboxylic acid] | ≤ 50 µM |  | ≤ 50 µM | deletion of FGFR3 | no change
CCc1c(O)cc(O)c(-c2ccccc2)c1CC1O[C@H](CO)[C@@H](CO)O1 [Compound 218, 5-{[(4R,5R)-4,5-bis(hydroxymethyl)-1,3-dioxolan-2-yl]methyl}-6-ethyl-4-phenylbenzene-1,3-diol] | ≤ 50 µM |  | ≤ 50 µM | deletion of FGFR3 | no change

Now from value to compound, other results behind:

GI50 [1] | GI50 [2] | GI50 [3] | Compound | deletion of FGFR3 encoded by the immunoglobulin gene-translocated partner gene [4] | protein amount of Erk2 (non-Hsp90 client protein) (Erk2)
≤ 50 µM | ≤ 50 µM | ≤ 50 µM | COC(=O)Cc1c(Br)c(O)cc(O)c1-c1ccco1 [Compound 238, Methyl 2-bromo-6-(furan-2-yl)-3,5-dihydroxyphenylacetate] |  | 
≤ 50 µM | ≤ 50 µM | ≤ 50 µM | COC(=O)Cc1c(Br)c(O)cc(O)c1-c1ccc(CCC(C)=O)o1 [Compound 265, Methyl 2-bromo-3,5-dihydroxy-6-[5-(3-oxobutyl)furan-2-yl]phenylacetate] |  | 
